Marks after values point to notes of the source that are not given here.
What was measured:
[1] = tested on: NSCLC with EGFR sensitizing, double or uncommon mutation; assay: Anti-tumor activity in NSCLC patients with EGFR mutation beyond Exon20ins; format: in vivo, human; settings: 50-400 mg once daily oral
Description: Compound 52 was explored at 50 mg, 100 mg, 200 mg, 300 mg and 400 mg once daily with oral administration in 12 non-small cell lung cancer (NSCLC) patients with EGFR sensitizing mutation (L858R or 19del), sensitizing (L858R or 19del) and T790M double mutation (double mutation) or less common non-resistant mutation (uncommon mutation, including Gly719Xaa, Leu861Gln, or Ser768Ile mutation). […] In 2 patients with uncommon mutation, 1 SD and 1 PD was observed after Compound 52 treatment.

WT EGFR cell line A-431 = assay: Cell proliferation, WT EGFR A431 (CellTiter-Glo, 72 h); format: cell-based; settings: Homo sapiens, A-431, 72 h, A431, 72 h proliferation; read-out: EGFR WT A431 GI50;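 note: proliferation from a luminescent ATP viability signal, expressed as 100 × (treated minus time-zero plate) over (DMSO control minus time-zero plate), cells grown with 10% FBS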
BTK [2] = target: T1, BTK (Homo sapiens, UniProt Q06187); assay: BTK target site occupancy ELISA (PBMC); format: cell-based; settings: BTK receptor occupancy
Description: (§1) An enzyme-linked immunosorbent assay (ELISA) method for the detection of free uninhibited Btk in mouse and human lysates. Human or mouse whole blood were incubated with compound for 2 hour at 37° C. Whole blood were lysed in ice-cold lysis buffer containing 50 mM Tris-HCl, pH 7.5, 150 mM NaCl, 1 mM EDTA,1% Triton X-100. […] Samples were transferred to a streptavidin-coated 96-well ELISA plate and mixed while shaking for 1 hour at room temperature. The α-Btk antibody (1:500; clone number D3H5, Cell signaling Technology, Danvers, MA, USA) was then added to the well and incubated for 1 hour at room temperature. After wash, goat α-rabbit-FW (1:5000 dilution in PBS+ 0.05% Tween-20 + 1% BSA) was added to each well and incubated for 1 h at room temperature. The ELISA was developed with addition of tetramethyl benzidine (TMB) followed by Stop Solution and read at OD 450 nm.

[3] = tested on: NSCLC with EGFR Exon20ins; assay: Anti-tumor activity in platinum-pretreated NSCLC patients with EGFR Exon20 insertion mutations; format: in vivo, human
Text: Compound 52 is a rationally designed, oral, EGFR Exon20 insertion (Exon20ins) inhibitor, with wild-type EGFR selectivity. […] Compound 52 is currently in late stage development with multiple pivotal studies ongoing globally as ≥ 2nd line treatment after platinum-containing chemotherapies and 1st line for treatment naive patients. Results from multicenter, multi-arm, global studies are presented herein.
A total of 119 evaluable platinum-pretreated NSCLC patients with EGFR Exon20ins were included in efficacy set.

Ba/F3 EGFR NPH ins cells = assay: Cell proliferation, Ba/F3 EGFR NPH ins (CellTiter-Glo, 72 h); format: cell-based; settings: Ba/F3 EGFR, 72 h, Ba/F3 EGFR NPH ins, 72 h proliferation; read-out: EGFR Exon20 NPH insertion GI50;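 note: IL3-independent cells carrying constitutively phosphorylated EGFR, compound dilution series, viable cells quantified by ATP luminescence, growth relative to DMSO wells after subtracting pre-dosing (day 0) baseline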
BTK [4] = target: T1, BTK; assay: BTK target site occupancy ELISA (Ramos); format: cell-based; design: endogenous in cells; host or cells: Ramos; settings: BTK receptor occupancy, read-out: Occupancy (Romas) IC50
Description: as §1

[5] = target: T2, human Her2 exon 20 insertion mutation YVMA (Homo sapiens, UniProt P04626, INS775YVMA); assay: Her2 Exon 20 YVMA insertion cellular phosphorylation inhibition (MSD p-Her2 Y1248/total Her2); format: cell-based; settings: Her2 YVMAins cells, 4 h compound;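 note: lentivirally transduced NIH-3T3 cells in 1% FBS medium, electrochemiluminescent MSD read-out, graded compound concentrations at 37 °C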
T2 construct: expressed in transfected cells; host or cells: NIH-3T3, lentiviral transduction, puromycin selection

TMD-8 cells = assay: BTK (wt) cell proliferation, TMD-8 (CellTiter-Glo, 72 h); format: cell-based; settings: Homo sapiens, TMD8, 72 h, TMD-8 cells, 72 h, CellTiter-Glo; read-out: BTK WT TMD-8 GI50;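 note: viable cells quantified by ATP-based luminescence, proliferation expressed as percent of DMSO control after subtracting a time-zero baseline plate read at dosing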
[6] = tested on: NCI-H1975 EGFR L858R/T790M cells; assay: Cell proliferation, NCI-H1975 EGFR L858R/T790M (CellTiter-Glo, 72 h); format: cell-based; settings: Homo sapiens, NCI-H1975, 72 h, NCI-H1975, 72 h proliferation; read-out: EGFR L858R and T790M mutation GI50;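 note: viable cells quantified by luciferase-based ATP luminescence, proliferation expressed relative to DMSO-treated wells (100%) after subtracting a parallel plate read at the time of dosing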
Description: WT or mutant cells were seeded in 384 well plates at appropriate concentrations with corresponding growth media supplemented with 10% FBS, for each experiment, identical plates were prepared in duplicates, and the plates were incubated overnight. On the next day, one of each duplicated plates was dosed with tested compounds at a series of concentrations, and another one of the duplicated plate was analysied for G0 value. The dosed plates were incubate for another 72 h at 37° C. with 5% CO2 and the number of viable cells in each well of the G0 plates or the dosed plates were measured by CellTiter-Glo® Luminescent Cell Viability Assay (Promega). This assay is a luminescent method for determining the number viable cells through measurement of cellular ATP concentration by detection of luciferase activity. Detection reagents (15 µl) was dispensed into per well, and the plates were incubate for 30 min at room temperature. Then, the luminescence in each well was measured using the Envision plate reader (PerkinElmer). The percentage of proliferation was calculated based on the formula: %Proliferation= 100 × (G3 value of sample well-Go value)/(G3 value of DMSO control-Go value).

[7] = In vitro rat hepatocytes clearance assay; settings: male, rat, cryopreserved rat hepatocytes (suspension), rat hepatocytes Clint (µL/min/10^6cells), 1 µM-range incubation up to 100 min
Description: (§2) The protocol for rat/human hepatocytes metabolic stability assay is employed to determine the clearance of the compounds of the present disclosure in vitro.
(§3) Rat hepatocytes in male gender and human hepatocytes in mixed gender were obtained from commercial vendors (e.g., BioreclamationIVT) and stored at -150° C. prior to use. 10 mM stock solutions of tested compounds were prepared in DMSO. Thawing medium and supplement incubation medium (serum-free) were placed in a 37° C. water bath for at least 15 minutes prior to use. Stock solutions were diluted to 100 µM by combining 198 µL acetonitrile and 2 µL of 10 mM stock solution.
(§4) Vials of cryopreserved hepatocytes were removed from storage, ensured that vials remain at cryogenic temperatures. The vials were thawed in a 37° C. water bath with gently shaking. Vials were kept in water bath until all ice crystals had dissolved and were no longer visible. Vials were sprayed with 70% ethanol before being transferred to a biosafety cabinet. And then the contents were poured into the 50 mL thawing medium conical tube. Vials were centrifuged at 100 g for 10 minutes at room temperature.
(§5) Cell viability and density were counted using a Trypan Blue exclusion, and then cells were diluted with serum-free incubation medium to a working cell density of 1 × 10^6 viable cells/ml. […] The inactivated hepatocytes were used to prepare negative samples, which were used to exclude the misleading factor that resulted from instability of chemical itself.
(§6) Aliquots of 247.5 µL hepatocytes were dispensed into each well of a 96-well non-coated plate. The plate was placed in the incubator on an orbital shaker for approximately 10 minutes. Aliquots of 2.5 µL of the 100 µM test compounds were added into respective wells of the non-coated 96-well plate to start the reaction. This assay was performed in duplicate. The plate was incubated in the incubator on an orbital shaker for the designed time points. […] Samples were centrifuges for 20 minutes at 4000 g and aliquots of 100 µL of the supernatants were used for LC-MS/MS analysis for measurement of test compounds
(§7) In vitro hepatocyte clearance was estimated based on determination of elimination half-life (T½) of compounds disappearance from their initial concentrations. Peak area ratios of each compound (test or control) to IS was calculated. Ln (%Control) versus Incubation Time (min) curve was plotted, and the slope of a linear fitting line was calculated.

OCI-LY-10 cells = assay: BTK (wt) cell proliferation, OCI-LY-10 (CellTiter-Glo, 72 h); format: cell-based; settings: Homo sapiens, OCI-Ly10, 72 h, OCI-LY-10 cells, 72 h, CellTiter-Glo; read-out: BTK WT OCI-LY-10 GI50;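 note: viable cells quantified via cellular ATP luminescence, proliferation given as percent of DMSO control after subtracting a duplicate plate read at time of dosing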
Ba/F3 EGFR ASV ins cells = assay: Cell proliferation, Ba/F3 EGFR ASV ins (CellTiter-Glo, 72 h); format: cell-based; settings: Ba/F3 EGFR, 72 h, Ba/F3 EGFR ASV ins, 72 h proliferation; read-out: EGFR Exon20 ASV insertion GI50;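 note: IL3-independent Ba/F3 cells transduced with EGFR V769_D770insASV, cellular ATP luminescence after compound exposure, growth relative to DMSO control with the day-0 baseline reading subtracted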
[8] = tested on: NSCLC with EGFR Exon20ins; assay: Anti-tumor activity in platinum-pretreated NSCLC patients with EGFR Exon20 insertion mutations; format: in vivo, human; remark: listed apart in the source
[9] = target: T3, human EGFR exon 20 H773_V774insNPH (Homo sapiens, UniProt P00533, INS773NPH); assay: EGFR Exon20 NPH insertion cellular phosphorylation inhibition (MSD pEGFR Y1068/total EGFR); format: cell-based; settings: Ba/F3 EGFR NPH ins cells, 4 h compound, p-EGFR(Y1068)/total EGFR;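 note: IL3-independent Ba/F3 cells with constitutively phosphorylated EGFR, compound exposure at 37 °C under 5% CO2, electrochemiluminescent MSD measurement of the p-EGFR to total EGFR ratio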
T3 construct: host or cells: Ba/F3
Description: One day before the test, WT or mutant cells were seeded in 96 well plates at appropriate concentrations with corresponding growth media supplemented with 1% FBS, and incubated overnight. The next day, tested compounds at a series of concentrations were added into each individual well of the plates, and the plates were incubated for 4 h at 37° C. with 5% CO2.
The EGFR (Y1068) phosphorylation level (activity) of cells in each well were then measured with MSD kit named “MULTI-SPOT®96 4-Spot HB Prototype EGFR Triplex [sequence]: pEGFR(Tyr1068),pEGFR(Tyr1173), Total EGFR” according to the manufacturer’s instruction (MESO SCALE DISCOVERY, Cat# N45ZB-1). The assay is an electrochemiluminescent method for determining both phosphorylated and total EGFR of cells with an MSD SECTOR® Imager and the ratio of p-EGFR/total EGFR can be generated by the machine.

Phospho-BTK (Tyr223) = target: T4, Phospho-BTK (Tyr223) (Homo sapiens, UniProt Q06187); assay: p-BTK assay in Ramos cells (HTRF Phospho-BTK Tyr223); format: cell-based; settings: pervanadate stimulated, read-out: p-BTK (Romas) IC50
T4 construct: endogenous in cells; host or cells: Ramos
Description: The assay plates were then incubated for 30 minutes at 37° C., 5% CO2. 300 uM Per vanadate (3X) was added to each well and the assay plates were again incubated for 60 minutes at 37° C., 5% CO2. Phospho-BTK (Tyr223) is detected using the HTRF® reagents (Cisbio) according to the manufacturer’s one-plate assay protocol.

WT EGFR = target: T5, WT EGFR (Homo sapiens, UniProt P00533); assay: WT EGFR cellular phosphorylation inhibition in A-431 (hEGF stimulated, MSD); format: cell-based; settings: A431 cells, 4 h compound, then 100 ng/ml hEGF 10 min;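 note: electrochemiluminescence read-out of EGFR Tyr1068 phosphorylation expressed as ratio to total EGFR, cells kept in medium with 1% FBS, compounds tested as a concentration series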
T5 construct: host or cells: A-431

[10] = In vitro human hepatocytes clearance assay; settings: both, human, cryopreserved human hepatocytes (suspension), human hepatocytes Clint (µL/min/10^6cells), mixed gender human hepatocytes, incubation up to 100 min
Description: as §2, §3, §4, §5, §6, §7

[11] = 2 patients with uncommon mutation
[12] = 4 NSCLC patients with EGFR sensitizing mutation
[13] = 5 NSCLC patients with EGFR double mutation
[14] = 50 mg (N = 3), post platinum-based chemotherapy
[15] = 100 mg (N = 2), post platinum-based chemotherapy
[16] = 200 mg (N = 21), post platinum-based chemotherapy
[17] = 300 mg (N = 84), post platinum-based chemotherapy
[18] = 400 mg (N = 9), post platinum-based chemotherapy
[19] = Total (N = 119), post platinum-based chemotherapy

T5 sequence (P00533 25-1210): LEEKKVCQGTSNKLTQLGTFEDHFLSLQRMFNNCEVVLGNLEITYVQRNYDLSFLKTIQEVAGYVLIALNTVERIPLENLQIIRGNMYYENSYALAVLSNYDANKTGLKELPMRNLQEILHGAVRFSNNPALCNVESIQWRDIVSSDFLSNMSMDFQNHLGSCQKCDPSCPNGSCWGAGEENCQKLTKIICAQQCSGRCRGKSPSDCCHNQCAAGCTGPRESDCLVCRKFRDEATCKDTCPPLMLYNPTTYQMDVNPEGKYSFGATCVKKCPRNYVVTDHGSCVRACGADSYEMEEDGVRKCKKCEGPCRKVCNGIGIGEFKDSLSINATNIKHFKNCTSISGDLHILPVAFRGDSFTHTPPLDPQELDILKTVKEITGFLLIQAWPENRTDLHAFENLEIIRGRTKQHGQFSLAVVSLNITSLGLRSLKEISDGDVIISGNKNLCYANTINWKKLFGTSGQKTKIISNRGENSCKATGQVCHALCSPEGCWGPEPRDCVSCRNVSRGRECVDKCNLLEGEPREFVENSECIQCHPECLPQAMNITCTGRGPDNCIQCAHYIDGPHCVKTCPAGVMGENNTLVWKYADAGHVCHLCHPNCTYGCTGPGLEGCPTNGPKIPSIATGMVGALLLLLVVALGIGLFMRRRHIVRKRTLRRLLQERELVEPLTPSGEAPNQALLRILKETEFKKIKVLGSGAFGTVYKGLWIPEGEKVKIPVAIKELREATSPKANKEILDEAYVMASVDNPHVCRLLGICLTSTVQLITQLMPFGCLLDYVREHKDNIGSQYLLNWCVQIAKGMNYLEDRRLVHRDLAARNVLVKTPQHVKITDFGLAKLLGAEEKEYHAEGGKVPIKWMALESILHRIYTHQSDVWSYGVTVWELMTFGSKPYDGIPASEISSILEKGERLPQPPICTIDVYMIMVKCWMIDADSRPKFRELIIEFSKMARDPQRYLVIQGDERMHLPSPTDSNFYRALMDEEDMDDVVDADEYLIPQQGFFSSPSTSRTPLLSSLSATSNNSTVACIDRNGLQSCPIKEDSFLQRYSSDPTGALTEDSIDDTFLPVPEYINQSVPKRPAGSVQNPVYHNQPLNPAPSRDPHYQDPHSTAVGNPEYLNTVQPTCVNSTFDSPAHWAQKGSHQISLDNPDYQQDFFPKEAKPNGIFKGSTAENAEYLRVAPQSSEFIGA
T2 sequence (P04626 with tags, fused parts or gaps INS775YVMA): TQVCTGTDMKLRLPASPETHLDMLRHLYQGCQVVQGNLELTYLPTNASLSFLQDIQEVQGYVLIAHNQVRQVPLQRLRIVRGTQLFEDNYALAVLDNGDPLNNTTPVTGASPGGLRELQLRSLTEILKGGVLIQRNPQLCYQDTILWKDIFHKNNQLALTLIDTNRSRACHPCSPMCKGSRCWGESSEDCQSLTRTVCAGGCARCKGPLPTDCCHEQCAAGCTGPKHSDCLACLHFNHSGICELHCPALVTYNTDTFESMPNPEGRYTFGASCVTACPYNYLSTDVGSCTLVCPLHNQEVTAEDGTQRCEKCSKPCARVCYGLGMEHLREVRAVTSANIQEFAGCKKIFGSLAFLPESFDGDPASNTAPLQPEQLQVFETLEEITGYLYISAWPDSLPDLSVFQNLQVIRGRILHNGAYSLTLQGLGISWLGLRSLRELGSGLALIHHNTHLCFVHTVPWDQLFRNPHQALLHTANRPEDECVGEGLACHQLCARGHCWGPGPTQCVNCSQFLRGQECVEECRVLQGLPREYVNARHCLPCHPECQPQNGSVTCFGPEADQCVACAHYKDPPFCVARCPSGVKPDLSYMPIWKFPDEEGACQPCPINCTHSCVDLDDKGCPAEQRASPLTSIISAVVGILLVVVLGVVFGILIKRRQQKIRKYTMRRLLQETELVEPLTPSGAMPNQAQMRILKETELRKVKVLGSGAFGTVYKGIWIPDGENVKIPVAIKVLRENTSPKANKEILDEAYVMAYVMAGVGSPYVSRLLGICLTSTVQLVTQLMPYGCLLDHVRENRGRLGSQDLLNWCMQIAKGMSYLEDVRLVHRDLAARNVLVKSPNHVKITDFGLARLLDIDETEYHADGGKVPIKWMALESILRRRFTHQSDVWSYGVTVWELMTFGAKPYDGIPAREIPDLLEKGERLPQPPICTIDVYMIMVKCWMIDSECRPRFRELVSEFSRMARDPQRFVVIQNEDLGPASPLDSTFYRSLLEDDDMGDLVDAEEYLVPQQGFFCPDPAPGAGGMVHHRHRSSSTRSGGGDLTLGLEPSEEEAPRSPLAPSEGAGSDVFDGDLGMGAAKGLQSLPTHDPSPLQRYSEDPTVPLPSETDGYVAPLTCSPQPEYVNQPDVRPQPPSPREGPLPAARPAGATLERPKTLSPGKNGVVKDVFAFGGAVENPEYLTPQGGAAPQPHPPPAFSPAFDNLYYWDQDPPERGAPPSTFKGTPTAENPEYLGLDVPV
T3 sequence (P00533 with tags, fused parts or gaps INS773NPH): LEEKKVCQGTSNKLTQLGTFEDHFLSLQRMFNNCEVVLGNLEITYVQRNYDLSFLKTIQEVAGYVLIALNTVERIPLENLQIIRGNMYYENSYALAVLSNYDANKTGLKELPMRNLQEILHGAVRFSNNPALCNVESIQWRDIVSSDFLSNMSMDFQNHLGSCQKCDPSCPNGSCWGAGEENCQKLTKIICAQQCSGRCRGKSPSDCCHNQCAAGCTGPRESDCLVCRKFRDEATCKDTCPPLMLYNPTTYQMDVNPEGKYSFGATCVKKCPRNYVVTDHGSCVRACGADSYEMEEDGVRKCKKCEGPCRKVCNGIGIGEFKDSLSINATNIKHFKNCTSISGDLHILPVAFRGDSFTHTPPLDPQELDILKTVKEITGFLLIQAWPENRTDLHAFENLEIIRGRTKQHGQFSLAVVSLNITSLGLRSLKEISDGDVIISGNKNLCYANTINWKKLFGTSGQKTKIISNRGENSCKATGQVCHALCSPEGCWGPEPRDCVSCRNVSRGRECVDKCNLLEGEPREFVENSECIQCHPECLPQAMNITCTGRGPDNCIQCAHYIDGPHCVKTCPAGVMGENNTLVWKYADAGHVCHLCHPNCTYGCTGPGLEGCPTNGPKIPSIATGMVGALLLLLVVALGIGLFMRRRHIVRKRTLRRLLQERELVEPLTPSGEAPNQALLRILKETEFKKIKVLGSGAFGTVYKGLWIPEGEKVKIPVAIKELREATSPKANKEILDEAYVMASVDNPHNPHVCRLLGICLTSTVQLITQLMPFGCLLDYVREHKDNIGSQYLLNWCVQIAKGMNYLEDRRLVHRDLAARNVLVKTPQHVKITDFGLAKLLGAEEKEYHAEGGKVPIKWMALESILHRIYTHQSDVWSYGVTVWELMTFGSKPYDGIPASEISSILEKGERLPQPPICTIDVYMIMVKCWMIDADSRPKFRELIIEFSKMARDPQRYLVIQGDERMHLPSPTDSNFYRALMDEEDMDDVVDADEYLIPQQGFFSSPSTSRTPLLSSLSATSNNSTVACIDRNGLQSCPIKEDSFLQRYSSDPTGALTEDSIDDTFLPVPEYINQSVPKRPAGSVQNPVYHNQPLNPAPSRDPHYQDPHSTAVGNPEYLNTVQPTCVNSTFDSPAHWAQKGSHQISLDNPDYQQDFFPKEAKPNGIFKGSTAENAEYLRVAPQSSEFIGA
T1 sequence (Q06187 whole entry): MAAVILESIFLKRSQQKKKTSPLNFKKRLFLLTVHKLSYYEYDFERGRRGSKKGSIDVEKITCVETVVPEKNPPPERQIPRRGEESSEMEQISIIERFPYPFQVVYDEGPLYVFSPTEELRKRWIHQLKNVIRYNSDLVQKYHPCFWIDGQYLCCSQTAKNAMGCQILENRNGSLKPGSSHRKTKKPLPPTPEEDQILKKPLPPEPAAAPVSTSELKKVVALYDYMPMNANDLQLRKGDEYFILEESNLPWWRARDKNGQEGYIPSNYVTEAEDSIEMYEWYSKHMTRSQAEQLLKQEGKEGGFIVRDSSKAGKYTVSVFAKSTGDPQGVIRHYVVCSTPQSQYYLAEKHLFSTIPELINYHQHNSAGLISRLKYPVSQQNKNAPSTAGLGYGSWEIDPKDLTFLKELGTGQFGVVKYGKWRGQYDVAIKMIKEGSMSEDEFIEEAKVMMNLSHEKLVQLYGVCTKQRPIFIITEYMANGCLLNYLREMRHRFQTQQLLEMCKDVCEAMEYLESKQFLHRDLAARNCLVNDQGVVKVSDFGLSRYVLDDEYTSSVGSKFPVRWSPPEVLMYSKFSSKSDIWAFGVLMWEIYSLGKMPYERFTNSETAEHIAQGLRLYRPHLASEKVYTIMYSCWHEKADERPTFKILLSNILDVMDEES
T4 sequence (Q06187 whole entry): as above

For C=CC(=O)Nc1cc(Nc2nccc(Nc3cc(Cl)c(F)cc3C(C)(C)O)n2)c(OC)cc1N1CC[C@@H](N(C)C)C1 [Compound 52, (R)-N-(5-(4-(5-chloro-4-fluoro-2-(2-hydroxypropan-2-yl)phenylamino)pyrimidin-2-ylamino)-2-(3-(dimethylamino)pyrrolidin-1-yl)-4-methoxyphenyl)a crylamide], the “patients with PD” value [1, 11] was 1, the “patients with SD” value [1, 11] was 1 and the “patients with PD” value [1, 12] was 1. The “patients with SD” value [1, 12] was 2, the “patients with best response of PR” value [1, 12] was 1 and the “patients with best response of partial response (PR)” value [1, 13] was 2. The “patients with progressive disease (PD)” value [1, 13] was 2, the GI50 (WT EGFR cell line A-431) was 47.1 nM and the IC50 (BTK [2]) was 2.9 nM. For the same compound, the “Best Objective Response Rate, PD (progressive disease)” value (“Best Objective Response Rate, PD” below) [3, 14] was 1 (33.3) n(%), the “Best Objective Response Rate, PR” value [3, 14] was 0 (0.0) n(%) and the “Best Objective Response Rate, PR, confirmed” value [3, 14] was 0 (0.0) n(%). For the same compound, the “Best Objective Response Rate, PR, pending confirmation” value [3, 14] was 0 (0.0) n(%), the “Best Objective Response Rate, SD (stable disease)” value (shortened to “Best Objective Response Rate, SD”) [3, 14] was 2 (66.7) n(%) and the “Best Objective Response Rate, PD” value [3, 15] was 0 (0.0) n(%). The “Best Objective Response Rate, PR” value [3, 15] was 1 (50.0) n(%), the “Best Objective Response Rate, PR, confirmed” value [3, 15] was 1 (50.0) n(%) and the “Best Objective Response Rate, PR, pending confirmation” value [3, 15] was 0 (0.0) n(%). For the same compound, the “Best Objective Response Rate, SD” value [3, 15] was 1 (50.0) n(%), the “Best Objective Response Rate, PD” value [3, 16] was 3 (14.3) n(%) and the “Best Objective Response Rate, PR” value [3, 16] was 10 (47.6) n(%). For the same compound, the “Best Objective Response Rate, PR, confirmed” value [3, 16] was 7 (33.3) n(%), the “Best Objective Response Rate, PR, pending confirmation” value [3, 16] was 2 (9.5)* n(%) and the “Best Objective Response Rate, SD” value [3, 16] was 9 (42.9) n(%). The “Best Objective Response Rate, PD” value [3, 17] was 9 (10.7) n(%), the “Best Objective Response Rate, PR, confirmed” value [3, 17] was 32 (38.1) n(%) and the “Best Objective Response Rate, PR, pending confirmation” value [3, 17] was 8 (9.5)* n(%). The “Best Objective Response Rate, SD” value [3, 17] was 35 (41.7) n(%), the “best Overall Response Rate (ORR)” value ([3]; 300 mg once daily, 44/84 patients, post platinum-based chemotherapy) was 52.4% and the “Best Objective Response Rate, PD” value [3, 18] was 2 (22.2) n(%). The “Best Objective Response Rate, PR” value [3, 18] was 2 (22.2) n(%), the “Best Objective Response Rate, PR, confirmed” value [3, 18] was 2 (22.2) n(%) and the “Best Objective Response Rate, PR, pending confirmation” value [3, 18] was 0 (0.0) n(%). The “Best Objective Response Rate, SD” value [3, 18] was 5 (55.6) n(%), the “Best Objective Response Rate, PD” value [3, 19] was 15 (12.6) n(%) and the “Best Objective Response Rate, PR” value [3, 19] was 57 (47.9) n(%). For the same compound, the “Best Objective Response Rate, PR, confirmed” value [3, 19] was 42 (35.3) n(%), the “Best Objective Response Rate, PR, pending confirmation” value [3, 19] was 10 (8.4)* n(%) and the “Best Objective Response Rate, SD” value [3, 19] was 52 (43.7) n(%). For the same compound, the “ORR for patients with baseline brain metastasis” value ([3]; across studies, 11/25 patients) was 44%, the “first response observed after treatment” value ([3]; single patient, stage IV NSCLC with CNS metastasis, 300 mg once daily) was 6 weeks and the GI50 (Ba/F3 EGFR NPH ins cells) was 60.4 nM. The IC50 (BTK [4]) was 0.6 nM, the IC50 [5] was 7.5 nM and the GI50 (TMD-8 cells) was 5.8 nM. The GI50 [6] was 3.3 nM, the hepatocyte CLint at 1 µM [7] was 13.3 µL/min/1e6 cells and the GI50 (OCI-LY-10 cells) was 3.2 nM. For the same compound, the GI50 (Ba/F3 EGFR ASV ins cells) was 83.2 nM, the “anti-tumor activity in earlier clinical studies” value [8] was “Significant anti-tumor activities” and the IC50 [9] was 20.4 nM. The IC50 (Phospho-BTK (Tyr223)) was 2.9 nM, the IC50 (WT EGFR) was 80.4 nM and the hepatocyte CLint at 1 µM [10] was 3.29 µL/min/1e6 cells.
